Assay results: patent US20160151461A1, “Cardio-Metabolic and Vascular Effects of GLP-1 Metabolites” (THE TRUSTEES OF THE UNIVERSITY OF PENNSYLVANIA, priority 2013, published 2016)
No end group written: not given here.

Experiments:
[1] = in vivo; cited from earlier work
[2] = system: conscious chronically instrumented dogs with pacing induced heart failure; assay: pacing induced model of dilated cardiomyopathy in conscious chronically instrumented dogs (72 hours of rapid ventricular pacing); assay type: in vivo; conditions: after 72 hours of rapid ventricular pacing, vs Control
Procedure: In order to compare the vasoactive effects of different classes of incretins, experiments were designed to study the pacing induced model of dilated cardiomyopathy in conscious chronically instrumented dogs (FIG. 3). These animals were instrumented to examine the effects of equal concentrations of various classes of incretins on coronary blood flow and renal blood flow. All dogs underwent 72 hours of rapid ventricular pacing following which coronary flow responses were measured (Control). Rapid pacing was associated with 30-35% declines in coronary blood flow and renal blood flow respectively. […] This supports the notion that the native peptide and active metabolites have vasoactive as well as glucose-stimulatory properties. The renal vascular effects support the claims for use in heart failure complicated by renal failure (cardio-renal syndrome). The coronary vasodilator properties support the claims for the use in acute coronary syndromes and microvascular angina.

[3] = system: patients with advanced heart failure; conditions: 5 weeks of continuous infusion, NYHA Class IIIB and IV; cited from earlier work
[4] = system: conscious, chronically instrumented dogs; assay: rapid pacing induced stress (72 hour) in conscious, chronically instrumented dogs, hemodynamic measurements; assay type: in vivo; conditions: 72 hours rapid pacing stress, vs sham vehicle
Text: FIG. 7 illustrates characteristic instrumentation of conscious, chronically instrumented dogs studied in the laboratory. Under sterile surgical technique, the animals are instrumented as indicated and allowed to recover fully from their surgery. LV, aortic, and left atrial catheters were used to measure pressures. LV Konigsberg® transducer was used to measure isovolumic contractility and relaxation as measures of systolic and diastolic function. Ultrasonic dimension crystals were used to measure LV shortening and LV filling rates. Pacing leads were attached to the left atrial appendage. Transonics® flow probes were placed around the left circumflex coronary artery and right renal artery to measure coronary and renal blood flow.
Experiments were performed where 25 conscious, chronically instrumented dogs (FIG. 7) were subjected to a rapid pacing induced stress which recapitulates the hemodynamic perturbations experienced by patients with sudden onset of paroxysmal atrial fibrillation (FIG. 8). Dogs were studied before and daily during the 72 hour pacing stress. […] All measurements were made during intrinsic sinus rhythm 20-30 minutes after cessation of pacing. Hemodynamic measurements included: • LV systolic and diastolic pressures, mean arterial pressures, heart rate • Systolic function: LV contractility (systolic contractile function), LV fractional shortening • Diastolic function: LV isovolumic relaxation time constant, LV filling rate • Flows: systemic, coronary and renal blood flows

[5] = system: patients with mild heart failure; conditions: infused for 48 hours, NYHA Class II; cited from earlier work
advanced heart failure = conditions: cited from earlier work
[6] = system: large animal models of advanced heart failure; conditions: cited from earlier work
[7] = system: normal, conscious, chronically instrumented dogs; assay: hyperglycemic clamp studies in normal, conscious, chronically instrumented dogs; assay type: in vivo
Procedure: To determine the effect of GLP-1 (32-36) on coronary blood flow, hyperglycemic clamp studies were conducted in normal, conscious, chronically instrumented dogs (n=3), in which plasma glucose was raised to 180 mg/dl by continuous infusion of glucose (FIG. 1). The plasma glucose concentration was monitored continuously as was plasma insulin response. In the control studies, the 5 dogs underwent the 3 hour hyperglycemic clamp. On a separate occasion, the same animals underwent a 3 hour hyperglycemic clamp in which GLP-1 (32-36) was infused beginning in the second hour.
Myocardial glucose uptake is calculated as the product of the difference in the arterial-coronary sinus glucose content and the average coronary blood flow. The increase in myocardial glucose uptake is in excess of that attributable to the increase in coronary blood flow alone.

myocardium; donor organs = assay: myocardial glucose uptake and preconditioning of donor organs against ischemic injury (summary statement)
AMP kinase = assay: isolated isovolumic rat heart, activation of AMP kinase; conditions: for AMPK activation in presence of EXE (inhibits activation of the GLP-1 receptor): with EXE; for AMPK activation in presence of pertussus toxin (PTX): with PTX (Gi); for AMPK activation in presence of STO609 (CAM kinase): with STO609
Text: It is largely unknown how GLP-1 stimulates glucose uptake independent of insulin. A candidate mechanism involves the activation of AMP kinase which causes GLUT translocation and glucose uptake independent of insulin. The isolated isovolumic rat heart was studied as a model in which myocardial specific responses can be observed (FIG. 4).

**Q.** Which active half-life time [1] does the source give for Glucagon-like peptide-1 [GLP-1] here?
**A.** 1 to 2 min

**Q.** What about the “half-life time in blood” value [1] of the same substance?
**A.** ≤ 5 min

**Q.** For “His-Ala-Glu-Gly-Thr-Phe-Thr-Ser-Asp-Val-Ser-Ser-Tyr-Leu-Glu-Gly-Gln-Ala-Ala-Lys-Glu-Phe-Ile-Ala-Trp-Leu-Val-Lys-Gly-Arg [GLP-1 (7-36) amide]”, which coronary blood flow [2] is on record?
**A.** preserved coronary and renal blood flow to a greater extent than seen in control

**Q.** What about the renal blood flow [2] of the same substance?
**A.** preserved coronary and renal blood flow to a greater extent than seen in control

**Q.** And the functional outcomes [3]?
**A.** improved functional outcomes

**Q.** And the “LV systolic and diastolic function” value [4]?
**A.** mitigated the declines

**Q.** And the coronary blood flow [4]?
**A.** preserved

**Q.** What about the renal blood flow [4] of the same substance?
**A.** preserved

**Q.** And the systemic vascular resistance [4]?
**A.** mitigated the declines in LV systolic and diastolic function and the rise

**Q.** What about the benefit [5] of the same substance?
**A.** no benefit

**Q.** And the “elevated levels of plasma glucagon” value (advanced heart failure)?
**A.** suppresses

**Q.** What about the insulin action (advanced heart failure) of the same substance?
**A.** augments

**Q.** And the “expression of mitochondrial uncoupling protein 3 (UCP-3) and mitochondrial cytochrome oxidase (Complex IV)” value ([6]; in vivo, iv)?
**A.** increased

**Q.** And the “mitochondrial reactive oxygen species (ROS) generation” value ([6]; in vivo)?
**A.** decreased

**Q.** And the “cell survival pathways (ras dependent activation of p38 MAP kinase, induction of NOS2)” value ([6]; independent of insulin signaling pathways)?
**A.** activates

**Q.** Which “increase in coronary blood flow” value ([7]; 3 hour hyperglycemic clamp, plasma glucose 180 mg/dl, peptide infused beginning in the second hour, vs control clamp) does the source give for “Leu-Val-Lys-Gly-Arg (LVKGR-NH2) [GLP-1 (32-36) amide]” here?
**A.** significantly greater increase

**Q.** And the “increase in myocardial glucose uptake” value ([7]; hyperglycemic clamp, matched hyperinsulinemia, vs control)?
**A.** significantly greater increase

**Q.** And the “preconditioning donor organs against ischemic injury” value (myocardium; donor organs)?
**A.** active

**Q.** And the “stimulating glucose uptake into myocardium in a non-insulin dependent fashion” value (myocardium; donor organs)?
**A.** active

**Q.** For “Glu-Gly-Thr-Phe-Thr-Ser-Asp-Val-Ser-Ser-Tyr-Leu-Glu-Gly-Gln-Ala-Ala-Lys-Glu-Phe-Ile-Ala-Trp-Leu-Val-Lys-Gly-Arg (EGTFTSDVSSYLEGQAAKEFIAWLVKGR-NH2) [GLP-1 (9-36) amide]”, which coronary blood flow [2] is on record?
**A.** preserved coronary and renal blood flow to a greater extent than seen in control

**Q.** What about the renal blood flow [2] of the same substance?
**A.** preserved coronary and renal blood flow to a greater extent than seen in control

**Q.** And the “LV systolic and diastolic function” value [4]?
**A.** mitigated the declines

**Q.** And the coronary blood flow [4]?
**A.** preserved

**Q.** What about the renal blood flow [4] of the same substance?
**A.** preserved

**Q.** And the systemic vascular resistance [4]?
**A.** mitigated the declines in LV systolic and diastolic function and the rise

**Q.** And the “phosphorylation and activation of AMP kinase” value (AMP kinase; 60 minutes of perfusion)?
**A.** increased the phosphorylation and the activation of AMP kinase

**Q.** And the “AMPK activation in presence of EXE (inhibits activation of the GLP-1 receptor)” value (AMP kinase)?
**A.** GLP-1 receptor independent

**Q.** And the “AMPK activation in presence of EXE (inhibits activation of the GLP-1 receptor)” value (AMP kinase; listed as GLP-1 (9-36))?
**A.** not blocked

**Q.** And the “AMPK activation under neuroendopeptidase inhibition (NEPI)” value (AMP kinase; with NEPI)?
**A.** abolished

**Q.** And the “AMPK activation in presence of pertussus toxin (PTX)” value (AMP kinase)?
**A.** pertussus toxin (Gi) and Ca-Calmodulin dependent

**Q.** And the “AMPK activation in presence of pertussus toxin (PTX)” value (AMP kinase; listed as GLP-1 (9-36))?
**A.** blocked by pertussus toxin

**Q.** And the “AMPK activation in presence of STO609 (CAM kinase)” value (AMP kinase)?
**A.** pertussus toxin (Gi) and Ca-Calmodulin dependent

**Q.** And the “AMPK activation in presence of STO609 (CAM kinase)” value (AMP kinase; listed as GLP-1 (9-36))?
**A.** blocked by STO609

**Q.** What about the “preconditioning donor organs against ischemic injury” value (myocardium; donor organs) of the same substance?
**A.** active

**Q.** And the “stimulating glucose uptake into myocardium in a non-insulin dependent fashion” value (myocardium; donor organs)?
**A.** active
